Columns and labels:
[1] = system: keratinocyte migration (MMP-1 dependent); conditions: collagen type I matrix in vitro; cited from earlier work

| Compound | melting point | inhibition of keratinocyte migration [1] |
| --- | --- | --- |
| O=C(C[C@@H](CCCC1CCCCC1)c1nc(C(=O)N2CC(N3CCOCC3)C2)no1)NO [Example 14, (3R)-6-Cyclohexyl-N-hydroxy-3-(3-{[3-(4-morpholinyl)-1-azetidinyl]carbonyl}-1,2,4-oxadiazol-5-yl)hexanamide] | 52 to 63 °C | – |
| CNC(=O)[C@H](Cc1ccc(OC)cc1)NC(=O)[C@@H](CC(=O)NO)CC(C)C [SC44463] | – | completely inhibited |
